What all share (format): binding
The target of test [1] is T1, Na-FAR-1 (Necator americanus, UniProt W2SRJ3).
T1 construct: gene NECAME_14208; His-tagged; expressed in E. coli BL21 (lambda DE3), selenomethionine form in B834
Put plainly: NMR titration ([…] HSQC chemical shift perturbation). The note with it: apo protein 0.4 mM, sodium oleate, 20 mM sodium phosphate pH 7.20, 311 K; multiple sites, no fitted constant.

Test [2] addresses T1, Na-FAR-1. Put plainly: fluorescence emission spectroscopy. To be noted: delipidated protein.
In test [3] the target is T1, Na-FAR-1. The test can be described thus: X-ray crystallography. The note with it: selenomethionine-labelled protein; co-purified from E. coli, palmitate chosen as fit to a C16 fatty acid density; internal cavity around Lys96.

T1 sequence (W2SRJ3 entry or part of it): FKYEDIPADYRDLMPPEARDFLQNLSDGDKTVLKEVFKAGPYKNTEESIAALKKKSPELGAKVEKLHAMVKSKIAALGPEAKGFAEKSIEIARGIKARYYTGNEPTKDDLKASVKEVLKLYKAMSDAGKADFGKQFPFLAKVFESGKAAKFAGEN

Turning to `CCCCCCCC/C=C\CCCCCCCC(=O)O` [oleic acid], at Na-FAR-1 [1], the “NMR titration (15N HSQC chemical shift perturbation)” value is recorded as “the protein binds up to at least four oleate molecules”.
Regarding `CC1=C(/C=C/C(C)=C/C=C/C(C)=C/CO)C(C)(C)CCC1` [retinol], the fluorescence emission spectroscopy entry on Na-FAR-1 [2] (retinol in ethanol, 1.5 μM protein, excitation 350 nm, isomer not stated) was “Na-FAR-1 bound the fluorescent FA analogue DAUDA and the naturally fluorescent lipid retinol”.
Take `CCCCCCCCCCCCCCCC(=O)O` [palmitate]: at Na-FAR-1 [3], the X-ray crystallography result is recorded as “Since the predominant FA found in E. coli lipids is palmitate, we fitted this”.
Turning to `CN(C)c1cccc2c(S(=O)(=O)NCCCCCCCCCCC(=O)O)cccc12` [DAUDA], at Na-FAR-1 [2] (PBS, 1 μM DAUDA, 1 μM protein, excitation 345 nm), the fluorescence emission spectroscopy entry is “Na-FAR-1 bound the fluorescent FA analogue DAUDA and the naturally fluorescent lipid retinol”.

These data come from PMC4613501, “Diversity in the structures and ligand-binding sites of nematode fatty acid and retinol-binding proteins revealed by Na-FAR-1 from Necator americanus” (Biochemical Journal, 2015).
